The results in this text go back to patent US10131649B2, “Bicyclic compounds as pest control agents” (BAYER CROPSCIENCE AKTIENGESELLSCHAFT, priority 2014, dated 2018).

The subject of the first data set is green peach aphid (Myzus persicae). The data set can be described thus: Myzus persicae spray test (Chinese cabbage leaf discs). As to conditions: foliar, 144 h, application rate 500 g/ha, after 6 days, Chinese cabbage leaf discs, 100% = all aphids killed, read-out: efficacy in %. The data set is classed as in vivo. As for the experimental part: Myzus persicae—Spray Test
Solvent: • 78 parts by weight of acetone • 1.5 parts by weight of dimethylformamide
Emulsifier: alkylaryl polyglycol ether
To produce a suitable preparation of active compound, 1 part by weight of active compound is dissolved using the specified parts by weight of solvent and made up with water containing an emulsifier concentration of 1000 ppm until the desired concentration is attained. To produce further test concentrations, the formulation is diluted with emulsifier-containing water.
Discs of Chinese cabbage leaves (Brassica pekinensis) infested by all stages of the green peach aphid (Myzus persicae) are sprayed with an active compound formulation of the desired concentration.
After 6 days, the efficacy in % is determined. 100% means that all the aphids have been killed; 0% means that no aphids have been killed.
As to `CSCC(C)C(=O)N(C)c1ccc2nn(-c3cnn(C)c3)cc2c1` (stereo not drawn) [Example 105, N,2-Dimethyl-N-(2-(1-methyl-1H-pyrazol-4-yl)-2H-indazol-5-yl)-3-(methylthio) propanamide], the pest or weed control at 500 g/ha stood at 90%.

The same data set, now with this note: foliar, 144 h, read-out: efficacy in %.
Consider `CN(C)C(=O)c1ccc2nn(-c3cccnc3)cc2c1` [Example 1], for which the pest or weed control at 500 g/ha is 100%.

As for `O=C(NCC(F)(F)F)c1ccc2nn(-c3cccnc3)cc2c1` [Example 3], the pest or weed control at 500 g/ha came out at 100%.

Consider `CN(C)C(=O)c1ccc2nn(-c3cncc(F)c3)cc2c1` [Example 18], for which the pest or weed control at 500 g/ha is 90%.

`O=C(NCC(F)(F)F)c1ccc2nn(-c3cncc(F)c3)cc2c1` [Example 19]: the pest or weed control at 500 g/ha amounted to 90%.

With `O=C(NCC(F)(F)F)c1ccc2nn(-c3cncnc3)cc2c1` [Example 26], the pest or weed control at 100 g/ha is 90%.

For the molecule `CN(C)C(=O)c1ccc2nn(-c3cncnc3)cc2c1` [Example 27], the pest or weed control at 500 g/ha is 90%.

Regarding `CCNC(=O)c1ccc2nn(-c3cncnc3)cc2c1` [Example 29], the pest or weed control at 100 g/ha stood at 90%.

For `O=C(NCC(F)F)c1ccc2nn(-c3cncnc3)cc2c1` [Example 30], the pest or weed control at 500 g/ha came out at 100%.

With `CNC(=O)c1ccc2nn(-c3cncnc3)cc2c1` [Example 31], the pest or weed control at 500 g/ha was 90%.

With `CON(C)C(=O)c1ccc2nn(-c3cncnc3)cc2c1` [Example 32], the pest or weed control at 500 g/ha worked out at 100%.

Turning to `CC(F)(F)CNC(=O)c1ccc2nn(-c3cncnc3)cc2c1` [Example 33], the pest or weed control at 500 g/ha amounted to 100%.

Regarding `Cn1cc(-n2cc3cc(C(=O)NCC(F)(F)F)ccc3n2)cn1` [Example 37], the pest or weed control at 500 g/ha is 90%.

As to `CSCCC(=O)N(C)c1ccc2nn(-c3cncc(F)c3)cc2c1` [Example 108], the pest or weed control at 500 g/ha was 100%.

On to `CSCC(C)C(=O)N(C)c1ccc2nn(-c3cncc(F)c3)cc2c1` (stereo not drawn) [Example 109], for which the pest or weed control at 500 g/ha is 100%.

On to `CSCC(C)C(=O)N(C)c1ccc2nn(-c3cccnc3)cc2c1` (stereo not drawn) [Example 110], for which the pest or weed control at 500 g/ha came out at 90%.

As for `CSCCC(=O)N(C)c1ccc2nn(-c3cccnc3)cc2c1` [Example 111], the pest or weed control at 500 g/ha was 90%.

With `CN(C(=O)CC(C)(F)F)c1ccc2nn(-c3cccnc3)cc2c1` [Example 112], the pest or weed control at 500 g/ha amounted to 100%.

Take `CN(C(=O)CC(C)(F)F)c1ccc2nn(-c3cncc(F)c3)cc2c1` [Example 113]: the pest or weed control at 500 g/ha was 90%.

As for `Cc1ccc(C(=O)N(C)c2ccc3nn(-c4cncc(F)c4)cc3c2)cc1[S+]([O-])CC(F)(F)F` (stereo not drawn) [Example 114], the pest or weed control at 500 g/ha was 90%.

With `Cc1ccc(C(=O)N(C)c2ccc3nn(-c4cccnc4)cc3c2)cc1[S+]([O-])CC(F)(F)F` (stereo not drawn) [Example 115], the pest or weed control at 500 g/ha was 100%.

Regarding `Cc1ccc(C(=O)N(C)c2ccc3nn(-c4cnn(C)c4)cc3c2)cc1[S+]([O-])CC(F)(F)F` (stereo not drawn) [Example 116], the pest or weed control at 500 g/ha came out at 90%.

In the case of `Cc1cc(F)c(C(=O)N(C)c2ccc3nn(-c4cncc(F)c4)cc3c2)cc1[S+]([O-])CC(F)(F)F` (stereo not drawn) [Example 118], the pest or weed control at 500 g/ha was determined as 90%.

Take `CN(C(=O)CC[S+](C)[O-])c1ccc2nn(-c3cncc(F)c3)cc2c1` (stereo not drawn) [Example 121]: the pest or weed control at 500 g/ha was found to be 100%.

On to `CC(C[S+](C)[O-])C(=O)N(C)c1ccc2nn(-c3cncc(F)c3)cc2c1` (stereo not drawn) [Example 122], for which the pest or weed control at 500 g/ha worked out at 100%.

With `CN(C(=O)CC[S+](C)[O-])c1ccc2nn(-c3cccnc3)cc2c1` (stereo not drawn) [Example 123], the pest or weed control at 500 g/ha came out at 90%.

Test system in a further data set: not listed separately
The data set can be described thus: log P by HPLC on reversed-phase columns (OECD Guideline 117), [a] acidic pH 2.7, [b] neutral pH 7.8. The data set is classed as physicochemical. The settings on record: reversed-phase (C18) HPLC column, acidic pH 2.7, read-out: logP[a]. The method, then: The log P values were determined in accordance with OECD Guideline 117 (EC Directive 92/69/EEC) by HPLC (high-performance liquid chromatography) using reversed-phase (RP) columns (C18), by the following methods:
[a] The LC-MS determination in the acidic range is carried out at pH 2.7 with 0.1% aqueous formic acid and acetonitrile (contains 0.1% formic acid) as eluents; linear gradient from 10% acetonitrile to 95% acetonitrile.
[b] LC-MS determination in the neutral range is effected at pH 7.8 with 0.001 molar aqueous ammonium hydrogencarbonate solution and acetonitrile as eluents; linear gradient from 10% acetonitrile to 95% acetonitrile.
Calibration is carried out using unbranched alkan-2-ones (having 3 to 16 carbon atoms) with known log P values (log P values determined on the basis of the retention times by linear interpolation between two successive alkanones).
As for `O=C(c1ccc2nn(-c3cccnc3)cc2c1)N1CCS(=O)(=O)CC1` [Example 93], the chromatographic logP was 0.87.

Turning to `c1cncc(-n2cc3cc(-c4cn[nH]c4)ccc3n2)c1` [Example 98, 5-(1H-Pyrazol-4-yl)-2-(pyridin-3-yl)-2H-indazole], the chromatographic logP was found to be 1.27.

Still in this data set, the particulars now being: reversed-phase (C18) HPLC column, neutral pH 7.8, read-out: logP[b].
Regarding `O=C(c1ccc2nn(-c3cccnc3)cc2c1)N1CCS(=O)(=O)CC1` [Example 93], the chromatographic logP came out at 1.03.

With `c1cncc(-n2cc3cc(-c4cn[nH]c4)ccc3n2)c1` [Example 98, 5-(1H-Pyrazol-4-yl)-2-(pyridin-3-yl)-2H-indazole], the chromatographic logP worked out at 1.3.
